Laboratory results reported in patent US8859235B2, “Methods in cell cultures, and related inventions, employing certain additives” (priority 2009, dated 2014).

What was measured:
E. coli HM125 = experiment: Growth and expression of FimH-CRD in E. coli HM125, shake flask cultivation in mineral medium; format: cell-based, Escherichia coli; settings: for mg FimH/g cell: control 0.81; for FimH / Cell pellet: mean of triplicate; for FimH: control 6.48 ± 0.36; for Cell pellet: control 7.99 ± 0.25
From the text: Standard molecular techniques are used for the cloning of the FimH carbohydrate recognition domain (FimH-CRD). The plasmid pfimHs-trc, encoding FimH lectin domain (1-156 amino acids M. Vetsch P et. al. 2002—J. Mol. Biol. 322: 827-840), is kindly provided by R. Glockshuber (ETH Zürich, Switzerland). The FimH-CRD fragment is amplified by polymerase chain reaction using specific forward primer containing the restriction site NdeI and a specific reverse primer containing the thrombin cleavage site and the restriction site XhoI, respectively. The insert is ligated into the corresponding cloning site in pET21b. The resulting contrast is named pET21b-FimH-CRD.
Precultures are prepared in 25 mL sterile LB medium [Tryptone (10.0 g/L), yeast extract (5.0 g/L), NaCl (10.0 g/L), ampicillin 100 (mg/L); adjusted to pH 7.0 with NaOH]. Cultures are inoculated with a glycerol stock stored at −80° C. of the protease deficient strain E. coli HM125 (Meerman H J & Georgiou G. 1994. Biotechnology (NY) 2, 1107-1110) harboring the plasmid pET21b-FimH-CRD Vector. Precultures are incubated at 37° C. for 10-12 h. Experimental cultures are performed in a volume of 500 mL of modified M9 medium [Na2HPO4×7H2O (12.8 g/L), KH2PO4 (3 g/L), NaCl (0.5 g/L), NH4Cl (1 g/L), D-glucose (4 g/L), MgSO4 (0.12 g/L), CaCl2 (0.01 g/L) and vitamins (in mg/L): riboflavin (0.1), choline chloride (1), folic Acid (1), niacinamide (1), p-amino benzoic acid (1), pyridoxal-HCl (1), thiamine-HCl (1), myo-lnositol (2)] supplemented with 100 mg/L ampicillin. Cultures are inoculated with 5 mL of the preoculture and grown at 30° C. and 150 rpm) until the optical density at 600 nm (0D600) reached 0.8-1.0. Then 1 mM IPTG and the stabilizer(s) (obligatory additive) according to the invention are added to final concentrations of 5, 10 and 20 mM as indicated from sterile stock solutions and the cultures are grown overnight. Then the cells are cooled on ice for 5 min and harvested by centrifugation at 5′000 rpm for 20 min at 4° C. Cell are harvested by centrifugation and biomass is quantified by weighing the wet cell pellets. The pellet is suspended in a cold solution of 50 mM Tris-HCl, pH 7.5, 150 mM NaCl, 5 mM EDTA, 1 mg/mL polymyxin B sulfate and stirred for two hours at 4° C. After centrifugation at 11′000 rpm for 20 min at 4° C., the supernatant (periplasmic extract) is dialyzed overnight against 50 mM NaH2PO4, 300 mM NaCl and 10 mM imidazole, pH 8 (binding buffer) and applied to a Ni-NTA column (Sigma, Buchs, Switzerland) attached to a BioLogic fast protein liquid chromatography system (BioRad, Reinach BL, Switzerland). The column is washed with binding buffer and afterwards eluted with 50 mM NaH2PO4, 300 mM NaCl and 250 mM imidazole, pH 8 (elution buffer). Fractions containing FimH-CRD-Th-6H is are pooled and dialyzed against water and then against 20 mM HEPES, 150 mM NaCl and 1 mM CaCl2, pH 7.4.
The concentration of protein is determined by HPLC method (Agilent 1100/1200 series) using BSA as standard (Sigma). The column Poros R1/10 10 μm (100×2 mm, Morvay Analytik) is kept at 60° C.; eluents are A: 0.1% trifluoroacetic acid (TFA) in H2O and B: 90% MeCN+0.09% TFA. A gradient of 20% B to 90% B is run within 20 min at a flow rate of 0.2 mL/min. The detection is monitored at 210 nm. Results are compiled in the following tables 5 and 6.

human cancer cells = settings: due to SAPK and p38 MAPK signal pathway modulation; US 2004/024025; cited from earlier work

## CC1(C)CCCC(C)(C)N1[O] [TEMPO, 2,2,6,6-Tetramethyl-1-piperidinyloxy radical, reference compound]
E. coli HM125; additive 5 mM
  mg FimH/g cell: 1.14 mg FimH/g cell
  FimH: 8.85 ± 0.21 mg/L
  Cell pellet: 7.78 ± 0.45 g/L
E. coli HM125; additive 10 mM
  mg FimH/g cell: 1.15 mg FimH/g cell
  FimH: 8.61 ± 0.14 mg/L
  Cell pellet: 7.44 ± 0.32 g/L
E. coli HM125; additive 20 mM
  mg FimH/g cell: 1.26 mg FimH/g cell
  FimH: 8.26 ± 0.54 mg/L
  Cell pellet: 6.54 ± 0.2 g/L
Human cancer cells
  Apoptosis in human cancer cells: increased apoptosis
